Assays:
adrenal cortex [1] = assay: Induced protection of adrenal against 7,12-DMBA; type: in vivo, rat
adrenal cortex [2] = conditions: cited from earlier work
[3] = system: menadione reductase (EC 1.6.5.2); assay: Induction of menadione reductase in tissues; type: in vivo, rat; conditions: for Hepatic menadione reductase: measured at 48 hours
lactic dehydrogenase = assay: Lactic dehydrogenase level in liver; type: in vivo, rat; conditions: 3-MC 2.5 mg intravenous; Fig. 1
[4] = Solubility of hydrocarbons in sesame oil; conditions: room temperature; approximately
[5] = 3-MC 2.5 mg i.v. on day 0 and day 1, tissues day 2, eight rats
[6] = rats bearing mammary cancers, fed 3-MC 10 mg, day 1, vs rats without 3-MC

In the case of `Cc1ccc2cc3c(ccc4ccccc43)c3c2c1CC3` [3-MC, 3-Methylcholanthrene], the Adrenal protection (adrenal cortex [1]; 3-MC 0.5 mg on day -1 by feeding or injection in muscle or in vein) is reported as “complete adrenal protection”, the “Duration of adrenal protection” value (adrenal cortex [1]; 3-MC 1 mg i.v., apoplexy when 7,12-DMBA injected on day 3) is reported as 2 days and the “Duration of adrenal protection” value (adrenal cortex [1]; 3-MC 5 mg i.v., apoplexy when 7,12-DMBA injected on day 8) is reported as 6 days. The Adrenal status (adrenal cortex [1]; 3-MC 2, 5, or 10 mg i.v. in the same emulsion with 7,12-DMBA 5 mg (simultaneous)) was “adrenal apoplexy in all of the animals”, the “Duration of adrenal protection” value (adrenal cortex [1]; 3-MC small dose (2 mg) i.v., Discussion) was 2 days and the Adrenal status (adrenal cortex [1]; Table IV, 3-MC 0.5 mg i.v. at -1 hr before 7,12-DMBA 5 mg i.v.) was “+”. For the same compound, the Adrenal status (adrenal cortex [1]; Table IV, 3-MC 0.5 mg i.v. at -2 hrs before 7,12-DMBA 5 mg i.v.) was “+”, the Adrenal status (adrenal cortex [1]; Table IV, 3-MC 0.5 mg i.v. at -3 hrs before 7,12-DMBA 5 mg i.v.) was 0 and the Adrenal status (adrenal cortex [1]; Table IV, 3-MC 0.5 mg i.v. at -4 hrs before 7,12-DMBA 5 mg i.v.) was 0. The Adrenal status (adrenal cortex [1]; Table IV, 3-MC 1 mg i.v. at -1 hr before 7,12-DMBA 5 mg i.v.) was “+”, the Adrenal status (adrenal cortex [1]; Table IV, 3-MC 1 mg i.v. at -2 hrs before 7,12-DMBA 5 mg i.v.) was “+” and the Adrenal status (adrenal cortex [1]; Table IV, 3-MC 1 mg i.v. at -3 hrs before 7,12-DMBA 5 mg i.v.) was 0. The Adrenal status (adrenal cortex [1]; Table IV, 3-MC 1 mg i.v. at -4 hrs before 7,12-DMBA 5 mg i.v.) was 0, the Adrenal status (adrenal cortex [1]; Table IV, 3-MC 2 mg i.v. at -1 hr before 7,12-DMBA 5 mg i.v.) was “+” and the Adrenal status (adrenal cortex [1]; Table IV, 3-MC 2 mg i.v. at -2 hrs before 7,12-DMBA 5 mg i.v.) was “+”. For the same compound, the Adrenal status (adrenal cortex [1]; Table IV, 3-MC 2 mg i.v. at -3 hrs before 7,12-DMBA 5 mg i.v.) was 0, the Adrenal status (adrenal cortex [1]; Table IV, 3-MC 2 mg i.v. at -4 hrs before 7,12-DMBA 5 mg i.v.) was 0 and the Adrenal status (adrenal cortex [1]; Table IV, 3-MC 2.5 mg i.v. at -1 hr before 7,12-DMBA 5 mg i.v.) was “+”. For the same compound, the Adrenal status (adrenal cortex [1]; Table IV, 3-MC 2.5 mg i.v. at -2 hrs before 7,12-DMBA 5 mg i.v.) was “+”, the Adrenal status (adrenal cortex [1]; Table IV, 3-MC 2.5 mg i.v. at -3 hrs before 7,12-DMBA 5 mg i.v.) was “+” and the Adrenal status (adrenal cortex [1]; Table IV, 3-MC 2.5 mg i.v. at -4 hrs before 7,12-DMBA 5 mg i.v.) was 0. The Adrenal status (adrenal cortex [1]; Table IV, 3-MC 5 mg i.v. at -1 hr before 7,12-DMBA 5 mg i.v.) was “+”, the Adrenal status (adrenal cortex [1]; Table IV, 3-MC 5 mg i.v. at -2 hrs before 7,12-DMBA 5 mg i.v.) was “+” and the Adrenal status (adrenal cortex [1]; Table IV, 3-MC 5 mg i.v. at -3 hrs before 7,12-DMBA 5 mg i.v.) was “+”. For the same compound, the Adrenal status (adrenal cortex [1]; Table IV, 3-MC 5 mg i.v. at -4 hrs before 7,12-DMBA 5 mg i.v.) was “+”, the Adrenal status (adrenal cortex [1]; Table IV, 3-MC 10 mg i.v. at -1 hr before 7,12-DMBA 5 mg i.v.) was “+” and the Adrenal status (adrenal cortex [1]; Table IV, 3-MC 10 mg i.v. at -2 hrs before 7,12-DMBA 5 mg i.v.) was “+”. For the same compound, the Adrenal status (adrenal cortex [1]; Table IV, 3-MC 10 mg i.v. at -3 hrs before 7,12-DMBA 5 mg i.v.) was “+”, the Adrenal status (adrenal cortex [1]; Table IV, 3-MC 10 mg i.v. at -4 hrs before 7,12-DMBA 5 mg i.v.) was “+” and the “Prevention of adrenal injury by 7,12-DMBA” value (adrenal cortex [2]) was “prevented adrenal injury”. For the same compound, the Hepatic menadione reductase ([3]; 3-MC 2.5 mg i.v. at 0 hours, lipide at 24 hours, Fig. 5) was 276 per cent of controls, the “Increase of menadione reductase in adrenal with respect to untreated controls” value [3, 5] was 159 per cent and the “Increase of menadione reductase in lung with respect to untreated controls” value [3, 5] was 164 per cent. For the same compound, the “Time of significant rise in menadione reductase in liver” value ([3]; 3-MC 2.5 mg i.v. only, Fig. 4) was 4 h, the “Time of first rise of menadione reductase in liver” value ([3]; 3-MC 2.5 mg intravenous, Fig. 1) was 3 h and the “Time of first increase of menadione reductase” value ([3]; 3-MC large dose (5 mg) i.v., Discussion) was 4 h. The “Increase of menadione reductase in liver” value [3, 6] was “+224 per cent”, the “Increase of menadione reductase in mammary cancer” value [3, 6] was “+275 per cent” and the “Increase of menadione reductase in mammary gland” value [3, 6] was “+214 per cent”. For the same compound, the Hepatic menadione reductase ([3]; sequence 3-MC 2.5 mg + 3-MC 2.5 mg i.v. at 0 and 24 hours) was 387 per cent of controls, the “Increase of menadione reductase concentration in liver” value ([3]; single feeding of 3-MC 0.5 mg, 24 hours, Fig. 2) was “twofold” and the “Increase of menadione reductase level in lung” value ([3]; single feeding of 3-MC 1 mg, 24 hours, Fig. 2) was 150 per cent. The “Change in concentration of lactic dehydrogenase in liver” value (lactic dehydrogenase) was “no significantchange” and the “Solubility w/v in sesame oil” value [4] was ~1.25 per cent.
